Data from patent US12291721B2, “Activated lymphocytes comprising cytokine-induced killer cells and preparation method therefor” (GREENCROSSCELL, priority 2019, dated 2025).

How the values were obtained:
[1] = test system: human pancreatic cancer (AsPC-1); assay: Anticancer effects on human pancreatic cancer (AsPC-1) xenograft; format: in vivo, nude mice
Procedure: Nude mice were purchased and stored in a specific pathogen free (SPF) room of the Korea Research Institute of Bioscience and Biotechnology, and allowed to acclimate for 1 week before use. Human pancreatic cancer, that is, AsPC1 cells were injected subcutaneously into each nude mouse at a concentration of 9×10^6 cells. […] As a positive control group, adriamycin was administered intravenously at a concentration of 2 mg/kg once a week for total 4 times.
(§1) Standard deviations (SDs) and p-values of all test results were calculated using ANOVA (Prisim, GraphPad software, USA) and student's t-test.

[2] = test system: human colon cancer (SW620); assay: Anticancer effects on human colon cancer (SW620) xenograft; format: in vivo, nude mice
Procedure: Nude mice were purchased and stored in a specific pathogen free (SPF) room of the Korea Research Institute of Bioscience and Biotechnology, and allowed to acclimate for 1 week before use. Human colon cancer, that is, SW620 cells were injected subcutaneously into each nude mouse at a concentration of 6×10^6 cells. […] As a positive control group, adriamycin was administered intravenously at a concentration of 2 mg/kg once a week for total 4 times.
as §1

[3] = test system: human melanoma cancer (LOX-IMV1); assay: Anticancer effects on human melanoma cancer (LOX-IMV1) xenograft
Procedure: Nude mice were purchased and stored in a specific pathogen free (SPF) room of the Korea Research Institute of Bioscience and Biotechnology, and allowed to acclimate for 1 week before use. Human melanoma cancer, that is, LOX-IMV1 cells were injected subcutaneously into each nude mouse at a concentration of 1.5×10^6 cells. […] As a positive control group, adriamycin was administered intravenously at a concentration of 2 mg/kg once a week for total 3 times.
as §1

[4] = test system: human renal cancer (ACHN); assay: Anticancer effects on human renal cancer (ACHN) xenograft
Procedure: Nude mice were purchased and stored in a specific pathogen free (SPF) room of the Korea Research Institute of Bioscience and Biotechnology, and allowed to acclimate for 1 week before use. Human renal cancer, that is, ACHN cells were injected subcutaneously into each nude mouse at a concentration of 1.2×10^7 cells. […] As a positive control group, adriamycin was administered intravenously at a concentration of 2 mg/kg once a week for total 4 times.
Standard deviations (SDs) and p-values of all test results were calculated using ANOVA (Prisim. GraphPad software, USA) and student's t-test.

[5] = test system: human prostate cancer (PC-3); assay: Anticancer effects on human prostate cancer (PC-3) xenograft; format: in vivo, nude mice
Procedure: Nude mice were purchased and stored in a specific pathogen free (SPF) room of the Korea Research Institute of Bioscience and Biotechnology, and allowed to acclimate for 1 week before use. Human prostate cancer, that is, PC-3 cells were injected subcutaneously into each nude mouse at a concentration of 9×10^6 cells. […] As a positive control group, adriamycin was administered intravenously at a concentration of 2 mg/kg once a week for total 4 times.
as §1

[6] = adriamycin 2 mg/kg i.v., day 25
[7] = day 25 compared with Day-1 (100%), adriamycin 2 mg/kg
[8] = adriamycin 2 mg/kg i.v., day 15
[9] = adriamycin 2 mg/kg i.v., day 28
[10] = adriamycin 2 mg/kg i.v., day 22

## COc1cccc2c1C(=O)c1c(O)c3c(c(O)c1C2=O)C[C@@](O)(C(=O)CO)C[C@@H]3O[C@H]1C[C@H](N)[C@H](O)[C@H](C)O1 [adriamycin]
[1]; [6]
  growth inhibition (tumor size): 48%
  growth inhibition (tumor weight): 44%
  tumor size: 130±28 mm^3
  tumor weight: 473 ± 64 mg
[1]; adriamycin (2 mg/kg), day 25, AsPC-1
  Tumor growth rate (%) compared to the control group: 55 ± 8%
[1]; [7]
  body weight change: 125%
[2]; [6]
  growth inhibition (tumor size): 48%
  growth inhibition (tumor weight): 49%
  tumor size: 142±97 mm^3
  tumor weight: 834 ± 306 mg
[2]; adriamycin (2 mg/kg), day 25, SW-620
  Tumor growth rate (%) compared to the control group: 54 ± 28%
[2]; [7]
  body weight change: 114%
[3]; [8]
  growth inhibition (tumor size): 72%
  growth inhibition (tumor weight): 70%
  tumor weight: 496 ± 306 mg
[3]; adriamycin (2 mg/kg), day 15, LOX-IMVI
  Tumor growth rate (%) compared to the control group: 30 ± 18%
[3]; day 15 compared with Day-1, adriamycin 2 mg/kg
  body weight change: 122%
[4]; [9]
  growth inhibition (tumor size): 40%
  growth inhibition (tumor weight): 37%
  tumor size: 192±44 mm^3
  tumor weight: 409 ± 41 mg
[4]; adriamycin (2 mg/kg), day 28, ACHN
  Tumor growth rate (%) compared to the control group: 63 ± 6%
[4]; day 28 compared with Day-1 (100%), adriamycin 2 mg/kg
  body weight change: 95%
[5]; [10]
  growth inhibition (tumor size): 40%
  growth inhibition (tumor weight): 40%
  tumor size: 225±59 mm^3
  tumor weight: 808 ± 156 mg
[5]; adriamycin (2 mg/kg), day 22, PC-3
  Tumor growth rate (%) compared to the control group: 60 ± 12%
[5]; day 22 compared with Day-1 (100%), adriamycin 2 mg/kg
  body weight change: 102%
